Experiments:
His-hSHIP1 enzyme [1] = biological target: T1, His-hSHIP1 enzyme (Homo sapiens, UniProt Q92835); assay: His-hSHIP1 activity, approach 2 (ratio of initial velocities IP4 25/IP4 250); assay type: biochemical; parameters: key: +++: higher than reference or reference - 15%; ++: reference - 16% to reference - 30%; +: reference - 31% or lower; conditions: ratio of initial velocities IP4 25/IP4 250 versus reference SHIP1 activator; asterisk in Table 2
T1 construct: His
T1 sequence (Q92835 1-1189): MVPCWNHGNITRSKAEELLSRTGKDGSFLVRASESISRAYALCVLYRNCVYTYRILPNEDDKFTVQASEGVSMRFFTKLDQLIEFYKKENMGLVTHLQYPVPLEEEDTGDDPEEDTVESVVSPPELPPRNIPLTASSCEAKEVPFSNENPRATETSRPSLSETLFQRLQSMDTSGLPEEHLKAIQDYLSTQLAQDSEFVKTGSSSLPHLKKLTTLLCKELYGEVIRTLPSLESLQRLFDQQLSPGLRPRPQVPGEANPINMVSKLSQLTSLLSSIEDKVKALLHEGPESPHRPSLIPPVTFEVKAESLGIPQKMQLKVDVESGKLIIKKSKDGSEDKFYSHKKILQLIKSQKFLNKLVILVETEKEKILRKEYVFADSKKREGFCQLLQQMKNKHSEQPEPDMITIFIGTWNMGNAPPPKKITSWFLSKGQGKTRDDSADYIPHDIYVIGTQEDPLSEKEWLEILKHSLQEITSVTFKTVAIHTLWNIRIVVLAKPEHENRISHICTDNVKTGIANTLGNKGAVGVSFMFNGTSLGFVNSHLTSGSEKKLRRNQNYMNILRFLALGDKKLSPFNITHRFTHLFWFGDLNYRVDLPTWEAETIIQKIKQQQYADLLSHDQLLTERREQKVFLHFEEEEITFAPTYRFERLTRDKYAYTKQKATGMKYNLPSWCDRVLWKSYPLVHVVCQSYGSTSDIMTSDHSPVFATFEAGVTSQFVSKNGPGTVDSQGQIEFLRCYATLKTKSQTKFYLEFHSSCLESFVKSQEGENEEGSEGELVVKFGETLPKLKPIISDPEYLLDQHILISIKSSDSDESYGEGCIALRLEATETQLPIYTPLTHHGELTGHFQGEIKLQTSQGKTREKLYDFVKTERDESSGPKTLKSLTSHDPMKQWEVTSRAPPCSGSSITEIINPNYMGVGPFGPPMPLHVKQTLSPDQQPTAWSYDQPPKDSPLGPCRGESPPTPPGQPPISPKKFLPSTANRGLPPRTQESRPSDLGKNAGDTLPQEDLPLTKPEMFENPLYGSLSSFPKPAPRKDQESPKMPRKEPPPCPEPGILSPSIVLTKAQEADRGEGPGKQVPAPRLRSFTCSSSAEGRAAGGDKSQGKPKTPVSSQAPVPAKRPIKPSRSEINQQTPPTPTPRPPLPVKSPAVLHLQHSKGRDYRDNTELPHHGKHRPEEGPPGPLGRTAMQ
Method: (§1) Test compounds are dissolved in 95% ethanol to form stock solutions. Before screening, the stock solutions are diluted with Phosphatase Assay Buffer (20 mM Tris-HCL, 10 mM MgCl2 pH 7.5, 0.02% Tween 20) to form working assay solutions that contain 10% ethanol. The assay is carried out on 96-well microtiter plates using a modified procedure of that reported by Ong et al., Blood 110, 1942-1949, 2007 and Yang et al., Org Lett 7, 1073-1076, 2005, both of which references are incorporated herein by reference in their entirety.
In the second approach, a master mix is prepared that contains […] (0.4-1.6 ng/μL final), 25 μL of the substrate, IP4 (25 or 250 μM final), and 50 μL of test compound in 3.3% ethanol ([…]). Control blanks are also prepared by replacing His-hSHIP1 enzyme, IP4, or test compounds with Phosphate Assay Buffer. […] Each reaction component is preincubated at 37° C. for 30 min before adding to a 96-well microtiter plate. The master mix is then incubated at 37° C. At time 0, 20, 25 and 30 min, 25 μL of the master mix is removed and transferred to a new 96-well microtiter plate, to which 100 μL of Biomol Green Reagent is added to stop the reaction. After incubating the mixture for 20 min at room temperature for color development, the absorbance is read with SpectraMax Plus 96-well plate reader at a wavelength of 650 nm. Phosphate released is plotted against time to calculate the initial velocities (i.e., slope of the graph) at each IP4 concentration. The initial velocities are baseline corrected and the ratio of initial velocities (IP425/IP4250) is calculated and used to rate the test compounds.

[2] = system: Akt phosphorylation in Molt-4 (SHIP1+) lymphocytes; assay: Akt phosphorylation in lymphocytes, Molt-4 (Western blot); assay type: cell-based; parameters: key: +: inhibits Akt phosphorylation at 10 μM; −: no effect on Akt phosphorylation at 10 μM; conditions: 10 μM; IGF-1 stimulated Molt-4 (PTEN−/SHIP1+) cells
Method: (§2) Jurkat (PTEN−/SHIP1−) or Molt-4 (PTEN−/SHIP1+) cells are starved in serum free RPMI for overnight. In a 15 mL conical tube, 2-3 million serum starved cells (1 million cells per mL) are treated with various concentrations of test compound (0.1, 1, or 10 μM final in 0.1% DMSO) for 30 min at 37° C. followed by stimulation with 100 ng/mL of IGF-1 for 1 hour at 37° C. After stimulation, cells are washed once with ice-cold DPBS and lysed with Lysis Buffer (20 mM Tris-HCl, pH 7.5, 140 mM NaCl, 1% NP-40, Complete Mini Protease Inhibitor Cocktail, 10 mM NaF, 1 mM Na3VO4, 1 mM β-glycerolphosphate) on ice for 30 min with vortexing every 10 min. Samples are then centrifuged at 13,000 rpm for 20 min, and supernatants are collected as total cell lysate samples. Protein concentration is determined using bicinchonic acid assay, and about 15 μg of total protein from each sample is loaded and separated on a 4-12% Tris-Glycine gel. After SDS-PAGE, proteins are transferred from the gel to a nitrocellulose membrane. The membrane is blocked in 5% BSA in PBS containing 0.1% Tween-20 (PBS-T) for 1 hour at room temperature before probing with primary antibodies for overnight at 4° C. The following antibodies are used: mouse anti-SHIP1 (1:500 dilution; Santa Cruz, Calif., USA), rabbit anti-phospho-Akt(Ser473) (1:1000 dilution; Cell Signaling Technologies, MA, USA), rabbit anti-Akt (1:1000; Cell Signaling Technologies, MA, USA), and rabbit anti-actin (1:2000; Cell Signaling Technologies, MA, USA). The membrane is then incubated with goat anti-rabbit or anti-mouse secondary antibodies (1:3000) for 1 hour at room temperature. Target proteins on the membrane are detected with ECL solution and exposed on a film.

[3] = system: Akt phosphorylation in Jurkat (SHIP1−) lymphocytes; assay: Akt phosphorylation in lymphocytes, Jurkat (Western blot); assay type: cell-based; parameters: key: +: inhibits Akt phosphorylation at 10 μM; −: no effect on Akt phosphorylation at 10 μM; conditions: 10 μM; IGF-1 stimulated Jurkat (PTEN−/SHIP1−) cells
Method: as §2

His-hSHIP1 enzyme [4] = biological target: T1, His-hSHIP1 enzyme; assay: His-hSHIP1 activity, approach 1 (phosphate release from IP4, Biomol Green); assay type: biochemical; conditions: activation of His-hSHIP1; IP4 50 μM; test compound 0-300 μM; no asterisk in Table 2
Method: as §1
Data were generated by one of two variant methods. Test compounds are screened by one of two approaches described as follows. In the first approach, each reaction contains 5 μL of His-hSHIP1 enzyme (5-20 ng), 10 μL of the substrate, 1,3,4,5-inositol tetrakisphosphate (IP4; 50 μM final), 5 μL of Phosphatase Assay Buffer, and 5 µL of test compound at various concentrations in 10% ethanol (0-300 μM final). Control blanks are also prepared by replacing His-hSHIP1 enzyme, IP4, or test compounds with Phosphatase Assay Buffer. After adding the reaction components in a 96-well microtiter plate on ice, the reaction is mixed by briefly shaking the plate vigorously. The reaction is then incubated at 37° C. for 15 min with gentle shaking followed by addition of 100 μL of Biomol Green Reagent (BIOMOL, Pa., USA) to terminate the reaction. The free phosphate released from IP4 by His-hSHIP1 binds to the Biomol Green Reagent, which turns the dye to green color. After incubating the mixture for 20 min at room temperature for color development, the absorbance is read with SpectraMax Plus 96-well plate reader (Molecular Devices, Sunnyvale, Calif., USA) at a wavelength of 650 nm.

[5] = system: passive cutaneous anaphylaxis in mice; assay: Passive cutaneous anaphylaxis in mice; assay type: in vivo; conditions: oral gavage, doses less than 20 mg/kg
Method: The activity of representative compounds on passive cutaneous anaphylaxis in mice was evaluated according to the procedures disclosed by Ovary, J Immunol 81, 355-357, 1958 and Halpern et al., Br J Pharmacol Chemother 20, 389-398, 1963, both of which are incorporated herein by reference in their entirety.
To induce a passive cutaneous anaphylaxis, mice undergo intradermal ear inoculation on their right ear with 25 ng in 20 μL of anti-DNP-IgE. The left ears are untreated and serve as negative controls. Twenty-four hours after inoculation, all mice are administered test compound by oral gavage (PO). Sixty minutes after oral administration, mice are given a tail vein injection of 2% Evan's Blue (0.2 μm filtered, in 200 μL saline) followed by a second tail IV injection of 100 μg DNP-HSA (in 200 μL). Sixty minutes following the DNP-HAS injection, mice are euthanized using CO2 inhalation. Subsequently, ear biopsies are performed by taking four millimetre punches from both ears, which then undergo Evan's Blue extraction using formamide incubation in 96 well plates. Eighty μL of eluents are transferred to flat-bottom 96-well plates and absorbance read using SpectraMax M5 spectrophotometer (Molecular Devices, Sunnyvale, Calif., USA) at 620 nm. Background readings from all samples are taken at 740 nm and subtracted from the 620 nm readings. Data are reported as OD.

Cc1cc(O)cc(C[C@H]2[C@@H](C(=O)O)CC[C@H]3C(C)(C)CCC[C@]23C)c1 [Compound No. 20, (1S,2S,4aS,8aR)-1-[(3-hydroxy-5-methylphenyl)methyl]-5,5,8a-trimethyl-decahydronaphthalene-2-carboxylic acid]
Scoring, Approach 2 (Initial velocity Ratio) (His-hSHIP1 enzyme [1]): +++ | Molt-4 (SHIP +), Akt phosphorylation [2]: − | Jurkat (SHIP1 −), Akt phosphorylation [3]: −

Cc1cc(O)cc(C(=O)[C@H]2C(C)C(N)C[C@H]3C(C)(C)CCC[C@]23C)c1.Cl (stereo partly drawn) [Compound No. 22, 3-{[(1S,4aS,8aS)-3-amino-2,5,5,8a-tetramethyl-decahydronaphthalen-1-yl]carbonyl}-5-methylphenol hydrochloride]
Scoring, Approach 1 (% increase relative to background) (His-hSHIP1 enzyme [4]): + (0 < x < 50) | Molt-4 (SHIP +), Akt phosphorylation [2]: + | Jurkat (SHIP1 −), Akt phosphorylation [3]: −

CC1(C)CCC[C@]2(C)[C@@H](COc3cc(O)cc(O)c3)[C@](C)(O)CC[C@@H]12 [Compound No. 38, 5-{[(1S,2R,4aS,8aS)-2-hydroxy-2,5,5,8a-tetramethyl-decahydronaphthalen-1-yl]methoxy}benzene-1,3-diol]
Scoring, Approach 1 (% increase relative to background) (His-hSHIP1 enzyme [4]): + (0 < x < 50) | % Inhibition of allergen-induced passive cutaneous anaphylaxis [5]: +++ (>50% inhibition)

C[C@H]1CC[C@H]2C(C)(C)CCC[C@]2(C)[C@H]1CC(O)c1cc(O)cc(O)c1 (stereo partly drawn) [Compound No. 58, 5-{2-[(1S,2S,4aS,8aR)-2,5,5,8a-tetramethyl-decahydronaphthalen-1-yl]-1-hydroxyethyl}benzene-1,3-diol]
Scoring, Approach 1 (% increase relative to background) (His-hSHIP1 enzyme [4]): +++ (x ≥65) | % Inhibition of allergen-induced passive cutaneous anaphylaxis [5]: +++ (>50% inhibition)

Cc1cc(O)cc(C(=O)[C@H]2[C@H](C)C(C(=O)O)C[C@H]3C(C)(C)CCC[C@]23C)c1 (stereo partly drawn) [Compound No. 68, (3S,4S,4aS,8aS)-4-[(3-hydroxy-5-methylphenyl)carbonyl]-3,4a,8,8-tetramethyl-decahydronaphthalene-2-carboxylic acid]
Scoring, Approach 2 (Initial velocity Ratio) (His-hSHIP1 enzyme [1]): +++ | Molt-4 (SHIP +), Akt phosphorylation [2]: − | Jurkat (SHIP1 −), Akt phosphorylation [3]: −

C[C@@H]1[C@H](NC(=N)N)C[C@H]2C(C)(C)CCC[C@]2(C)[C@H]1C(=O)c1cc(O)cc(O)c1 [Compound No. 178, 1-[(2R,3S,4S,4aS,8aS)-4-[(3,5-dihydroxyphenyl)carbonyl]-3,4a,8,8-tetramethyl-decahydronaphthalen-2-yl]guanidine]
Scoring, Approach 2 (Initial velocity Ratio) (His-hSHIP1 enzyme [1]): +++

C[C@@H]1[C@H](NS(C)(=O)=O)C[C@H]2C(C)(C)CCC[C@]2(C)[C@H]1C(=O)c1cc(O)cc(O)c1 [Compound No. 179, N-[(2R,3S,4S,4aS,8aS)-4-[(3,5-dihydroxyphenyl)carbonyl]-3,4a,8,8-tetramethyl-decahydronaphthalen-2-yl]methanesulfonamide]
Scoring, Approach 2 (Initial velocity Ratio) (His-hSHIP1 enzyme [1]): +

C[C@@H]1[C@H](NC(=O)CNS(=O)(=O)c2ccccc2C(=O)O)C[C@H]2C(C)(C)CCC[C@]2(C)[C@H]1C(=O)c1cc(O)cc(O)c1 [Compound No. 181, 2-[({[(2R,3S,4S,4aS,8aS)-4-[(3,5-dihydroxyphenyl)carbonyl]-3,4a,8,8-tetramethyl-decahydronaphthalen-2-yl]carbamoyl}methyl)sulfamoyl]benzoic acid]
Scoring, Approach 2 (Initial velocity Ratio) (His-hSHIP1 enzyme [1]): +++
